For the assay, the system named is HIV-1 NL4-3 viral clone expressing Renilla luciferase. Description: microbe, parasite or virus in culture. In kind it is cell-based. To be noted: Human immunodeficiency virus 1, NL43, MT2, 96 h. How it is done: Protocol for MT-2 Spread Assay
The present assay was used to screen candidate antiviral compounds by quantification of virus spread and production over several rounds of infection in vitro. MT-2, a HIV-1 permissive human T-cell line, was seeded in microtiter plates and was simultaneously treated with serially diluted compound and inoculated with a HIV-1 NL4-3 viral clone engineered to express Renilla luciferase in place of Net Following treatment, the culture was incubated for 96 hours. After the incubation, media was collected and used to estimate relative infectivity on the indicator cell line, TZM-bl. Additionally, viral spread was quantified by measuring luciferase activity via a commercially available luciferase substrate. In parallel, MT-2 cells were seeded and inoculated with mock virus in the presence of serially diluted compound. Compound toxicity was quantified 96 hours after treatment with AlamarBlue.
MT-2 (NIH Aids reagent program 237) cells were grown and maintained in an incubator at 37° C. with 5% CO2 using a basal medium of RPMI-1640 supplemented with 10% FBS. Cells were seeded in 100 μl at 2×10^4 cells/well in white walled 96-well microtiter plates. Candidate compounds were 3-fold serially diluted in the appropriate solvent. Solvent without compound was used as a no drug reference. Cells were inoculated at a multiplicity of 0.027 with an HIV-1 NL4-3 virus stock engineered to express Renilla luciferase in place of Net Diluted virus stock was first added to serially diluted compound. Compound and virus were delivered to cells in an equal volume (100 μl) and treated cultures were returned to the incubator for 96 hours. In parallel, plates for cytotoxicity estimates were prepared in the same way except cells were plated in clear walled 96-well microtiter plates and were mock infected.
At 96 hours post infection, 100 μl virus containing culture supernatant was collected from the treated and infected cultures and serially diluted in DMEM supplemented with 10% FBS, 1% sodium pyruvate, and 20 μg/ml DEAE dextran. One day prior, TZM-bl (ATCC PTA-5659) were cultured in basal medium of DMEM supplemented with 10% FBS and 1% sodium pyruvate and seeded at 7.5×10^3 cells/well in black walled 96-well microtiter plates. Diluted virus containing culture supernatant was transferred to TZM-bl cultures and incubated for 48 hours at 37° C. with 5% CO2. Infected TZM-bl cultures were fixed for 5 minutes with a 1% formaldehyde/0.2% gluteraldehyde/PBS solution then washed three times with PBS. Fixed cultures were incubated at 37° C. for 25 minutes with a 200 μg/ml MUG (4-Methylumbelliferyl β-D-[…])/DMEM solution. The reaction was stopped with an equal volume of 1M sodium carbonate and read at 360, 449 nm on fluorescence plate reader (Biotek).
At 96 hours post infection, 100 μl of culture supernatant was removed from the treated and infected cultures and EnduRen live cell substrate (Promega) was added at a final concentration 1.3 μg/ml. Cells were incubated for 1.5 hours at 37° C. with 5% CO2 then read on a luminescence plate reader (Biotek).
For all assays, data was imported into Accelrys Assay Explorer 3.3. In Assay Explorer, % inhibition (antiviral or cytotoxicity) was calculated using the solvent control as a reference by the following equation: 1−(SignalCompound/SignalReference). The % Inhibition and compound concentration data was fitted using the following 4-parameter logistic model (Assay Explorer model 42):
[formula] where X is compound concentration, Y is % inhibition, D is the maximum % Inhibition (constrained to 100%), C is IC50 value or inflection point, B is the hill slope, and A is the minimum % inhibition (constrained to 0%). The IC50 value is reported as the EC50 or CC50 depending on the assay endpoint. EC50 represents the effective concentration at which virus replication is inhibited by 50 percent. CC50 represents the concentration that results in the death of 50 percent of the host cells. […]
As for `COc1cc2c(cc1OCc1ccccc1)CCNC2/C=C/c1ccc(F)cc1C` (stereo not shown) [Example X, 6-benzyloxy-1-[(E)-2-(4-fluoro-2-methyl-phenyl)vinyl]-7-methoxy-1,2,3,4-tetrahydroisoquinoline], a half-maximal response (EC50) required 0.62 µM. That is a sub-micromolar value. On to `COc1cc2c(cc1OC)C(/C=C/c1cc(OCc3ccccc3)c(OC)cc1C)NCC2` (stereo not shown) [Example C, 1-[(E)-2-(5-Benzyloxy-4-methoxy-2-methyl-phenyl)vinyl]-6,7-dimethoxy-1,2,3,4-tetrahydroisoquinoline], for which it took 9.76 µM to reach a half-maximal effect (EC50). Take `COc1cc2c(cc1OCc1ccccc1)CCNC2/C=C/c1cc(OCC2CCNCC2)c(OC)cc1C` (stereo not shown) [BY, 6-Benzyloxy-7-methoxy-1-[(E)-2-[4-methoxy-2-methyl-5-(4-piperidylmethoxy)phenyl]vinyl]-1,2,3,4-tetrahydroisoquinoline]: a half-maximal response (EC50) required 0.397 µM. To `COc1cccc(/C=C/C2NCCc3cc(OCc4ccccc4)c(OC)cc32)c1` (stereo not shown) [EJ, 6-Benzyloxy-7-methoxy-1-[(E)-2-(3-methoxyphenyl)vinyl]-1,2,3,4-tetrahydroisoquinoline] belongs 2.98 µM.

For `CCCCOc1cc(/C=C/C2NCCc3cc(OCc4ccccc4)c(OC)cc32)ccc1OC` (stereo not shown) [BE, 6-Benzyloxy-1-[(E)-2-(3-butoxy-4-methoxy-phenyl)vinyl]-7-methoxy-1,2,3,4-tetrahydroisoquinoline], the EC50 (as a rule, the concentration giving half of the maximal effect) was 0.0998 µM. `COc1cc2c(cc1OCc1ccccc1)CCNC2/C=C/c1ccc(-c2ccccn2)cc1` (stereo not shown) [DZ, 6-Benzyloxy-7-methoxy-1-[(E)-2-[4-(2-pyridyl)phenyl]vinyl]-1,2,3,4-tetrahydroisoquinoline] displayed an EC50 of 0.65 µM.

On to `COc1cc2c(cc1OCc1ccccc1)CCNC2/C=C/c1cccc(C(F)(F)F)c1` (stereo not shown) [DB, (E)-6-(benzyloxy)-7-methoxy-1-(3-(trifluoromethyl)styryl)-1,2,3,4-tetrahydroisoquinolin], for which the EC50 was 2.67 µM. The compound `COc1cc2c(cc1OCc1ccccc1)CCNC2/C=C/c1ccc(-c2cncnc2)cc1` (stereo not shown) [DS, 6-(Benzyloxy)-7-methoxy-1-[(E)-2-[4-(pyrimidin-5-yl)phenyl]ethenyl]-1,2,3,4-tetrahydroisoquinoline] registered an EC50 of 0.116 µM. The compound `CCOC(=O)c1coc(-c2ccc(/C=C/C3NCCc4cc(OCc5ccccc5)c(OC)cc43)cc2)n1` (stereo not shown) [EE, Ethyl 2-[4-[(E)-2-(6-benzyloxy-7-methoxy-1,2,3,4-tetrahydroisoquinolin-1-yl)vinyl]phenyl]oxazole-4-carboxylate] yielded an EC50 of 0.99 µM. Compound `CCc1cc(OC)c(OCc2ccccc2)cc1/C=C/C1NCCc2cc(OCc3ccccc3)c(OC)cc21` (stereo not shown) [Example AA, 6-benzyloxy-1-[(E)-2-(5-benzyloxy-2-ethyl-4-methoxy-phenyl)vinyl]-7-methoxy-1,2,3,4-tetrahydroisoquinoline] came in with an EC50 of 0.148 µM. In turn, `COc1cc2c(cc1OCc1ccccc1)CCNC2/C=C/c1ccccc1C` (stereo not shown) [Example W, 6-benzyloxy-7-methoxy-1-[(E)-2-(o-tolyl)vinyl]-1,2,3,4-tetrahydroisoquinoline] came in with an EC50 of 0.69 µM. Against the preceding compound, the EC50 is about 4.7-fold higher.

As for `CCOC(=O)c1ccccc1/C=C/C1NCCc2cc(OCc3ccccc3)c(OC)cc21` (stereo not shown) [ET, Ethyl 2-[(E)-2-(6-benzyloxy-7-methoxy-1,2,3,4-tetrahydroisoquinolin-1-yl)vinyl]benzoate], a half-maximal response (EC50) required 2.48 µM.

`COc1cc2c(cc1OCc1ccccc1)CCNC2/C=C/c1cc(OC)c(OCc2ccccc2)c(OC)c1` (stereo not shown) [AP, 6-Benzyloxy-1-[(E)-2-(4-benzyloxy-3,5-dimethoxy-phenyl)vinyl]-7-methoxy-1,2,3,4-tetrahydroisoquinoline] returned an EC50 of 0.97 µM. `COc1cc2c(cc1OCc1ccccc1)CCNC2/C=C/c1cc(C)c(OC)c(C(F)(F)F)c1` (stereo not shown) [CZ, (E)-6-(benzyloxy)-7-methoxy-1-(4-methoxy-3-methyl-5-(trifluoromethyl)styryl)-1,2,3,4-tetrahydroisoquinoline] gave an EC50 of 2.19 µM. `COc1ccc(/C=C/C2NCCc3cc(OCc4ccccc4)c(OC)cc32)cc1Br` (stereo not shown) [AR, 6-Benzyloxy-1-[(E)-2-(3-bromo-4-methoxy-phenyl)vinyl]-7-methoxy-1,2,3,4-tetrahydroisoquinoline] showed an EC50 of 0.8 µM.

`COc1cc2c(cc1OCc1ccccc1)CCNC2/C=C/c1sccc1C` (stereo not shown) [BS, 6-Benzyloxy-7-methoxy-1-[(E)-2-(3-methyl-2-thienyl)vinyl]-1,2,3,4-tetrahydroisoquinoline] returned an EC50 of 2.87 µM. In turn, `COc1cc2c(cc1OCc1ccccc1)CCNC2/C=C/c1ccc2c(c1)CCO2` (stereo not shown) [BM, 6-Benzyloxy-1-[(E)-2-(2,3-dihydrobenzofuran-5-yl)vinyl]-7-methoxy-1,2,3,4-tetrahydroisoquinoline] yielded an EC50 of 0.146 µM. This EC50 is about 20-fold lower than that of the compound before. Consider `COc1cc2c(cc1OCc1ccccc1)CCNC2/C=C/c1c[nH]c2ccccc12` (stereo not shown) [CJ, 6-Benzyloxy-1-[(E)-2-(1H-indol-3-yl)vinyl]-7-methoxy-1,2,3,4-tetrahydroisoquinoline], for which the response was half-maximal at 0.47 µM (EC50). In the case of `COc1ccc(CCC2NCCc3cc(OC)c(OC)cc32)cc1OC` (stereo not shown) [Example A, 1-[2-(3,4-Dimethoxyphenyl)ethyl]-6,7-dimethoxy-1,2,3,4-tetrahydroisoquinoline], the EC50 was found to be 10 µM. For the compound `COCCOc1ccccc1/C=C/C1NCCc2cc(OCc3ccccc3)c(OC)cc21` (stereo not shown) [DE, (E)-6-(benzyloxy)-7-methoxy-1-(2-(2-methoxyethoxy)styryl)-1,2,3,4-tetrahydroisoquinoline], the EC50 came out at 1.44 µM. With `COc1cc2c(cc1OCc1ccccc1)CCNC2/C=C/c1ccc2occc2c1` (stereo not shown) [BN, 1-[(E)-2-(benzofuran-5-yl)vinyl]-6-benzyloxy-7-methoxy-1,2,3,4-tetrahydroisoquinoline], the EC50 was 0.84 µM. On to `CCCCN1CCc2cc(OCc3ccccc3)c(OC)cc2C1/C=C/c1ccc(OC)c(OCc2ccccc2)c1` (stereo not shown) [Example G, 6-Benzyloxy-1-[(E)-2-(3-benzyloxy-4-methoxy-phenyl)vinyl]-2-butyl-7-methoxy-3,4-dihydro-1H-isoquinoline], for which it took 5 µM to reach a half-maximal effect (EC50). For `COc1cc2c(cc1OCc1ccccc1)CCNC2/C=C/c1ccc(-n2cncn2)cc1` (stereo not shown) [DT, 6-(Benzyloxy)-7-methoxy-1-[(E)-2-[4-(1H-1,2,4-triazol-1-yl)phenyl]ethenyl]-1,2,3,4-tetrahydroisoquinoline], the EC50 was 0.157 µM. Compound `COc1cc2c(cc1OCc1ccccc1)CCNC2/C=C/c1cccc(-c2ccncc2)c1` (stereo not shown) [DQ, 6-(Benzyloxy)-7-methoxy-1-[(E)-2-[3-(pyridin-4-yl)phenyl]ethenyl]-1,2,3,4-tetrahydroisoquinoline] gave an EC50 of 0.126 µM. This EC50 and that of the compound before are within 1.5-fold of each other. Consider `COc1cc2c(cc1OCc1ccccc1)CCNC2/C=C/c1ccccc1N1CCOCC1` (stereo not shown) [DH, (E)-4-(2-(2-(6-(benzyloxy)-7-methoxy-1,2,3,4-tetrahydroisoquinolin-1-yl)vinyl)phenyl)morpholine], for which the response was half-maximal at 5.26 µM (EC50). This EC50 lies about 42-fold higher than the previous one. As to `COc1cc2c(cc1OCc1ccccc1)CCNC2/C=C/c1ccc(OC)c2occc12` (stereo not shown) [Example AN, 6-Benzyloxy-7-methoxy-1-[(E)-2-(7-methoxybenzofuran-4-yl)vinyl]-1,2,3,4-tetrahydroisoquinoline], the EC50 amounted to 0.14 µM.

As to `COc1cc2c(cc1OCc1ccccc1)CCNC2/C=C/c1cc(OC(F)(F)F)ccc1C` (stereo not shown) [BH, 6-Benzyloxy-7-methoxy-1-[(E)-2-[2-methyl-5-(trifluoromethoxy)phenyl]vinyl]-1,2,3,4-tetrahydroisoquinoline], the EC50 was 1.93 µM. This EC50 lies about 14-fold higher than the previous one.

The compound `COc1cc2c(cc1OCc1ccccc1)CCNC2/C=C/c1nccs1` (stereo not shown) [DV, 6-(Benzyloxy)-7-methoxy-1-[(E)-2-(1,3-thiazol-2-yl)ethenyl]-1,2,3,4-tetrahydroisoquinoline] displayed an EC50 of 29.5 µM.
